The values that follow come from patent publication US20220313698A1, “MODULATORS OF CYSTIC FIBROSIS TRANSMEMBRANE CONDUCTANCE REGULATOR” (Vertex Pharmaceuticals Incorporated, priority 2019, published 2022).

Values joined by “and” are separate entries in the source; they are usually repeats but may differ in a detail not shown here. Equal values may be shown once. Read-outs that look alike come from different tables or passages of the source.

As a reminder, the EC50 is the midpoint of the concentration-response curve.

The conditions of data set [1]: snar bond.
The target of data set [2] is T1, CFTR-mediated chloride transport (Homo sapiens, UniProt P13569). Description: Corrector Assay A - membrane potential dye assay (enteroid cells). Conditions: for Corrector Assay A % activity: % of chloride transport of triple combination control (1 μM (14S)-dispiro macrocycle + 3 μM tezacaftor + 300 nM ivacaftor); for EC50: read-out: Corrector Assay A EC50, human intestinal enteroid cells, 18-24 h incubation, acute 10 μM forskolin + 300 nM ivacaftor.

Data set [3] concerns the target T1, CFTR-mediated chloride transport. In words: Corrector Assay B - membrane potential dye assay (enteroid cells).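 On all read-outs here: methyl oxonol membrane potential fluorescence followed over 15 min after switching to chloride-free buffer with forskolin, 100 µM IBMX and ivacaftor, in presence of CaCC blockers.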 The note with it: for Corrector Assay B % activity: % of chloride transport of triple combination control (3 μM Compound A + 3 μM tezacaftor + 300 nM ivacaftor).
Experimental: Base medium (ADF+++) consisted of Advanced DMEM/Ham's F12, 2 mM Glutamax, 10 mM HEPES, 1 μg/ml penicillin/streptomycin.
Intestinal enteroid maintenance medium (IEMM) consisted of ADF+++, 1×B27 supplement, 1×N2 supplement, 1.25 mM N-acetyl cysteine, 10 mM Nicotinamide, 50 ng/mL hEGF, 10 nM Gastrin, 1 μg/mL hR-spondin-1, 100 ng/mL hNoggin, TGF-b type 1 inhibitor A-83-01, 100 μg/mL Primocin, 10 μM P38 MAPK inhibitor SB202190.
Bath 1 Buffer consisted of 1 mM MgCl2, 160 mM NaCl, 4.5 mM KCl, 10 mM HEPES, 10 mM Glucose, 2 mM CaCl2).
Chloride Free Buffer consisted of 1 mM Magnesium Gluconate, 2 mM Calcium Gluconate, 4.5 mM Potassium Gluconate, 160 mM Sodium Gluconate, 10 mM HEPES, 10 mM Glucose.
Bath 1 Dye Solution consisted of Bath 1 Buffer, 0.04% Pluronic F127, 20 μM Methyl Oxonol, 30 μM CaCCinh-A01, 30 μM Chicago Sky Blue.
Chloride Free Dye Solution consisted of Chloride Free Buffer, 0.04% Pluronic F127, 20 μM Methyl Oxonol, 30 μM CaCCinh-A01, 30 μM Chicago Sky Blue.
Chloride Free Dye Stimulation Solution consisted of Chloride Free Dye Solution, 10 μM forskolin, 100 μM IBMX, and 300 nM Ivacaftor.
Cells were recovered in cell recovery solution, collected by centrifugation at 650 rpm for 5 min at 4° C., resuspended in TryPLE and incubated for 5 min at 37° C. Cells were then collected by centrifugation at 650 rpm for 5 min at 4° C. and resuspended in IEMM containing 10 μM ROCK inhibitor (RI). The cell suspension was passed through a 40 μm cell strainer and resuspended at 1×10^6 cells/mL in IEMM containing 10 μM RI. Cells were seeded at 5000 cells/well into multi-well plates and incubated for overnight at 37° C., 95% humidity and 5% CO2 prior to assay.
Briefly, cells were washed 5 times in Bath 1 Buffer. Bath 1 Dye Solution was added and the cells were incubated for 25 min at room temperature. Following dye incubation, cells were washed 3 times in Chloride Free Dye Solution. Chloride transport was initiated by addition of Chloride Free Dye Stimulation Solution and the fluorescence signal was read for 15 min. The CFTR-mediated chloride transport for each condition was determined from the AUC of the fluorescence response to acute forskolin and 300 nM N-[2,4-bis(1,1-dimethylethyl)-5-hydroxyphenyl]-1,4-dihydro-4-oxoquinoline-3-carboxamide stimulation. Chloride transport was then expressed as a percentage of the chloride transport following treatment with 3 μM Compound A, 3 μM (R)-1-(2,2-difluorobenzo[d][1,3]dioxol-5-yl)-N-(1-(2,3-dihydroxypropyl)-6-fluoro-2-(1-hydroxy-2-methylpropan-2-yl)-1H-indol-5-yl)cyclopropanecarboxamide and 300 nM acute N-[2,4-bis(1,1-dimethylethyl)-5-hydroxyphenyl]-1,4-dihydro-4-oxoquinoline-3-carboxamide triple combination control (% Activity).

`CC1(C)CC2CN1c1nc(-n3ccc(OCCC4(C(F)(F)F)CC4)n3)ccc1C(=O)NS(=O)(=O)c1cccc(n1)NCCC2c1ccccc1` (centres unmarked) showed a ring closure, yield after HPLC in data set [1] (from CC1(C)CC(C(CCNc2cccc(S(=O)(=O)NC(=O)c3ccc(-n4ccc(OCCC5(C(F)(F)F)CC5)n4)nc3Cl)n2)c2ccccc2)CN1, 15-membered ring, K2CO3/3A MS, DMSO, 38.4 mM, 155.0 °C, 16.0 h, 2 steps) of 50%.
Turning to `CC(C)(C)c1ccc2c(n1)N1C[C@@H](CCC(c3ccc(C(=O)O)cc3)Nc3cccc(n3)S(=O)(=O)NC2=O)CC1(C)C` (some centres unmarked), in data set [1] (from CC1(C)C[C@H](CCC(Nc2cccc(S(=O)(=O)NC(=O)c3ccc(C(C)(C)C)nc3Cl)n2)c2ccc(C(=O)O)cc2)CN1, 15-membered ring, K2CO3, NMP, 26.5 mM, 165.0 °C, 48.0 h), the ring closure, yield after HPLC was found to be 24%.
Consider `CC(C)(C)c1ccc2c(n1)N1C[C@@H](CCC(c3cc(Cl)ccn3)Nc3cccc(n3)S(=O)(=O)NC2=O)CC1(C)C` (some centres unmarked), for which, in data set [1] (from CC(C)(C)OC(=O)N1C[C@@H](CCC(Nc2cccc(S(=O)(=O)NC(=O)c3ccc(C(C)(C)C)nc3F)n2)c2cc(Cl)ccn2)CC1(C)C, 15-membered ring, K2CO3, NMP, 142.0 mM, 140.0 °C, 2 steps), the ring closure, yield after HPLC was 43%.
Take `CCCC1(C)CC2CCCNc3cccc(n3)S(=O)(=O)NC(=O)c3ccc(-n4ccc(OCCC5(C(F)(F)F)CC5)n4)nc3N1C2` (centres unmarked): in data set [1] (from CCCC1(C)CC(CCCNc2cccc(S(=O)(=O)NC(=O)c3ccc(-n4ccc(OCCC5(C(F)(F)F)CC5)n4)nc3Cl)n2)CN1, 15-membered ring, K2CO3, NMP, 20.9 mM, 150.0 °C, 16.0 h), the ring closure, yield after HPLC amounted to 28%.
For the compound `CC(C)(C)c1ccc2c(n1)N1C[C@@H](CCC(CCC(C3CC3)C3CC3)Nc3cccc(n3)S(=O)(=O)NC2=O)CC1(C)C` (some centres unmarked), the ring closure, yield after HPLC in data set [1] (from CC(C)(C)OC(=O)N1C[C@@H](CCC(CCC(C2CC2)C2CC2)Nc2cccc(S(=O)(=O)NC(=O)c3ccc(C(C)(C)C)nc3F)n2)CC1(C)C, 15-membered ring, K2CO3, DMSO, 77.1 mM, 140.0 °C, 2 steps) was found to be 46%.
As for `CC(C)(C)OC(=O)N1C[C@@H](CCC(c2ccccc2)n2ccc(S(=O)(=O)NC(=O)c3ccc(C(C)(C)C)nc3Cl)n2)CC1(C)C` (some centres unmarked), in data set [1] (the molecule shown is the open-chain precursor, 14-membered ring, K2CO3, NMP, 74.5 mM, 140.0 °C, 2 steps), the ring closure, yield after HPLC is 13%.
With `CC(C)(C)c1ccc2c(n1)N1C[C@@H](CCC(C3CCN(C(=O)OCc4ccccc4)CC3)Nc3cccc(n3)S(=O)(=O)NC2=O)CC1(C)C` (some centres unmarked), the ring closure, yield after HPLC in data set [1] (from CC1(C)C[C@H](CCC(Nc2cccc(S(=O)(=O)NC(=O)c3ccc(C(C)(C)C)nc3F)n2)C2CCN(C(=O)OCc3ccccc3)CC2)CN1, 15-membered ring, K2CO3, NMP, 42.0 mM, 140.0 °C, 16.0 h) is 58%.
As to `CC(C)(C)c1ccnc([C@H]2CC[C@@H]3CN(c4nc(Br)ccc4C(=O)NS(=O)(=O)c4cccc(n4)N2)C(C)(C)C3)c1` [Compound 55, (14S,17R)-8-bromo-17-(4-tert-butylpyridin-2-yl)-12,12-dimethyl-2λ^6-thia-3,9,11,18,23-pentaazatetracyclo[17.3.1.111,14.05,10]tetracosa-1(22),5,7,9,19(23),20-hexaene-2,2,4-trione], in data set [1] (from CC1(C)C[C@@H](CCC(Nc2cccc(S(=O)(=O)NC(=O)c3ccc(Br)nc3Cl)n2)c2cc(C(C)(C)C)ccn2)CN1, 15-membered ring, K2CO3, DMA, 97.8 mM, 140.0 °C, 7.0 h), the ring closure, yield after HPLC was 23%. Also, in data set [2], the “Corrector Assay A % activity” value is recorded as “++ (++ is 30-60%)” and the EC50 was below 1000 nM.
Consider `CC(C)COc1cc(F)cc(-c2ccc3c(n2)N2C[C@@H](CCC(c4ccccn4)Nc4cccc(n4)S(=O)(=O)NC3=O)CC2(C)C)c1` (some centres unmarked), for which the ring closure, yield after HPLC in data set [1] (from CC(C)COc1cc(F)cc(-c2ccc(C(=O)NS(=O)(=O)c3cccc(NC(CC[C@@H]4CN(C(=O)OC(C)(C)C)C(C)(C)C4)c4ccccn4)n3)c(Cl)n2)c1, 15-membered ring, K2CO3, NMP, 38.2 mM, 140.0 °C, 2 steps) is 18% and 31%.
Consider `CC(C)(C)c1ccc2c(n1)N1CC(CCCOc3cccc(c3)S(=O)(=O)NC2=O)CC1(C)C` (centres unmarked), for which the ring closure, yield after HPLC in data set [1] (from CC1(C)CC(CCCOc2cccc(S(=O)(=O)NC(=O)c3ccc(C(C)(C)C)nc3F)c2)CN1, 15-membered ring, K2CO3, NMP, 27.5 mM, 150.0 °C, 16.0 h) turned out to be 41%.
Take `CC(C)(C)c1ccc2c(n1)N1C[C@@H](CC[C@@H](c3cccc(Br)n3)Nc3cccc(n3)S(=O)(=O)NC2=O)CC1(C)C` (single isomer, unassigned) [Compound 214]: in data set [1] (from CC1(C)C[C@H](CCC(Nc2cccc(S(=O)(=O)NC(=O)c3ccc(C(C)(C)C)nc3F)n2)c2cccc(Br)n2)CN1, 15-membered ring, K2CO3, NMP, 21.9 mM, 165.0 °C, 16.0 h), the ring closure, yield after HPLC worked out at 45%. In addition, in data set [2], the “Corrector Assay A % activity” value is reported as “++ (++ is 30-60%)” and the concentration giving a half-maximal response (EC50) is below 1000 nM.
Compound `CC(C)C1CC[C@@H]2CN(c3nc(-n4ccc(OCCC5C6(CC6)C56CC6)n4)ccc3C(=O)NS(=O)(=O)c3cccc(n3)N1)C(C)(C)C2` (single isomer, unassigned; diastereomer 2) returned a ring closure, yield after HPLC in data set [1] (from CC(C)C(CC[C@H]1CNC(C)(C)C1)Nc1cccc(S(=O)(=O)NC(=O)c2ccc(-n3ccc(OCCC4C5(CC5)C45CC5)n3)nc2Cl)n1, 15-membered ring, K2CO3, NMP, 23.0 mM, 165.0 °C, 16.0 h) of 60%.
Take `CC(C)(C)c1ccc2c(n1)N1CC(CC1(C)C)OCCNc1cccc(n1)S(=O)(=O)NC2=O` (centres unmarked): the ring closure, yield after HPLC in data set [1] (from CC(C)(C)OC(=O)N1CC(OCCNc2cccc(S(=O)(=O)NC(=O)c3ccc(C(C)(C)C)nc3F)n2)CC1(C)C, 15-membered ring, K2CO3, NMP, 73.3 mM, 160.0 °C, 2 steps) turned out to be 61%.
Consider `CC1(C)CC2CC(c3ccccc3)CNc3cccc(n3)S(=O)(=O)NC(=O)c3ccc(-n4ccc(OCCC5(C(F)(F)F)CC5)n4)nc3N1C2` (centres unmarked), for which, in data set [1] (from CC(C)(C)OC(=O)N1CC(CC(CNc2cccc(S(=O)(=O)NC(=O)c3ccc(-n4ccc(OCCC5(C(F)(F)F)CC5)n4)nc3Cl)n2)c2ccccc2)CC1(C)C, 15-membered ring, K2CO3/4A MS, DMSO, 44.7 mM, 140.0 °C, 2 steps), the ring closure, yield after HPLC turned out to be 60%.
For `CC(C)(C)c1ccc2c(n1)N1C[C@@H](CCC(C3=CCN(C(=O)OCc4ccccc4)CC3)Nc3cccc(n3)S(=O)(=O)NC2=O)CC1(C)C` (some centres unmarked), the ring closure, yield after HPLC in data set [1] (from CC1(C)C[C@H](CCC(Nc2cccc(S(=O)(=O)NC(=O)c3ccc(C(C)(C)C)nc3F)n2)C2=CCN(C(=O)OCc3ccccc3)CC2)CN1, 15-membered ring, K2CO3/3A MS, NMP, 29.7 mM, 155.0 °C, 18.0 h, 2 steps) was 89%.
For the compound `CC1(C)CC2CN1c1nc(-n3ccc(OCCC4(C(F)(F)F)CC4)n3)ccc1C(=O)NS(=O)(=O)c1cccc(n1)NCCC2c1ccccc1` (single isomer, unassigned) [Compound 393, 12,12-dimethyl-15-phenyl-8-(3-{2-[1-(trifluoromethyl)cyclopropyl]ethoxy}-1H-pyrazol-1-yl)-2λ^6-thia-3,9,11,18,23-pentaazatetracyclo[17.3.1.111,14.05,10]tetracosa-1(22),5,7,9,19(23),20-hexaene-2,2,4-trione], in data set [2], the “Corrector Assay A % activity” value is listed as “+++ (+++ is >60%)” and the EC50 was below 1000 nM. In addition, the “Corrector Assay B % activity” value in data set [3] was “+++ (+++ is >60%)”.
Regarding `CC(C)(C)c1ccc2c(n1)N1CC(CCN(c3ccccc3)C(=O)c3cccc(c3)S(=O)(=O)NC2=O)CC1(C)C` (centres unmarked), the ring closure, yield after HPLC in data set [1] (from CC1(C)CC(CCN(C(=O)c2cccc(S(=O)(=O)NC(=O)c3ccc(C(C)(C)C)nc3Cl)c2)c2ccccc2)CN1, 15-membered ring, K2CO3, then CsF/3A MS, NMP, 24.6 mM, 180.0 °C, 88.0 h) was 29%.
`CC1(C)C[C@@H]2CCCNc3cccc(n3)S(=O)(=O)NC(=O)c3cc(Cc4ccccc4)c(F)nc3N1C2` showed a ring closure, yield after HPLC in data set [1] (from CC1(C)C[C@H](CCCNc2cccc(S(=O)(=O)NC(=O)c3cc(Cc4ccccc4)c(F)nc3F)n2)CN1, 15-membered ring, K2CO3, NMP, 71.8 mM, 160.0 °C, 21.5 h, 2 steps) of 33%.
Take `CC(C)C1CC[C@@H]2CN(c3nc(-n4ccc(OCCC5C6(CC6)C56CC6)n4)ccc3C(=O)NS(=O)(=O)c3cccc(n3)N1)C(C)(C)C2` (single isomer, unassigned; diastereomer 1): the ring closure, yield after HPLC in data set [1] (from CC(C)C(CC[C@H]1CNC(C)(C)C1)Nc1cccc(S(=O)(=O)NC(=O)c2ccc(-n3ccc(OCCC4C5(CC5)C45CC5)n3)nc2Cl)n1, 15-membered ring, K2CO3, NMP, 20.9 mM, 165.0 °C, 16.0 h) was found to be 68%.
On to `CC(C)(C)c1ccc2c(n1)N1C[C@@H](CCC(c3cncnc3)Nc3cccc(n3)S(=O)(=O)NC2=O)CC1(C)C` (single isomer, unassigned) [Compound 297], for which, in data set [2], the “Corrector Assay A % activity” value is reported as “+++ (+++ is >60%)” and the EC50 is below 1000 nM. Further, the “Corrector Assay B % activity” value in data set [3] is given as “+++ (+++ is >60%)”. Further, the EC50 in data set [3] (read-out: Corrector Assay B EC50, human intestinal enteroid cells, 18-24 h incubation, acute 10 μM forskolin + 300 nM ivacaftor) is below 1000 nM.
As for `CC(C)(C)c1ccc2c(n1)N1C[C@@H](CCC(c3ccc(Cl)cn3)Nc3cccc(n3)S(=O)(=O)NC2=O)CC1(C)C` (single isomer, unassigned; diastereomer 2), the ring closure, yield after HPLC in data set [1] (from CC1(C)C[C@H](CCC(Nc2cccc(S(=O)(=O)NC(=O)c3ccc(C(C)(C)C)nc3F)n2)c2ccc(Cl)cn2)CN1, 15-membered ring, K2CO3/3A MS, NMP, 55.9 mM, 150.0 °C, 4.0 h, 2 steps) was determined as 34%.
The compound `CC1(C)C[C@@H]2CCC(c3ccc(C(=O)O)cc3)Nc3cccc(n3)S(=O)(=O)NC(=O)c3ccc(-n4ccc(OCCC5(C(F)(F)F)CC5)n4)nc3N1C2` (some centres unmarked) came in with a ring closure, yield after HPLC in data set [1] (from CC1(C)C[C@H](CCC(Nc2cccc(S(=O)(=O)NC(=O)c3ccc(-n4ccc(OCCC5(C(F)(F)F)CC5)n4)nc3Cl)n2)c2ccc(C(=O)O)cc2)CN1, 15-membered ring, K2CO3, NMP, 19.4 mM, 150.0 °C, 18.0 h) of 40%.
Regarding `CC(C)(C)c1ccc2c(n1)N1C[C@@H](CCC(c3ccc(Cl)cn3)Nc3cccc(n3)S(=O)(=O)NC2=O)CC1(C)C` (single isomer, unassigned; diastereomer 1), the ring closure, yield after HPLC in data set [1] (from CC1(C)C[C@H](CCC(Nc2cccc(S(=O)(=O)NC(=O)c3ccc(C(C)(C)C)nc3F)n2)c2ccc(Cl)cn2)CN1, 15-membered ring, K2CO3/3A MS, NMP, 78.4 mM, 150.0 °C, 4.0 h, 2 steps) came to 39%.
